According to patent publication US8507510B2, “Sulfoximine-substituted pyrimidines as CDK- and/or VEGF inhibitors, their production and use as pharmaceutical agents” (Bayer Intellectual Property GmbH, priority 2003, dated 2013):

Experiments:
MCF7 = assay: Proliferation assay, MCF7; format: cell-based, human; details: Homo sapiens, MCF7, 96 h, MCF7 cells, 4 days, crystal violet
From the text: (§1) Cultivated human tumor cells (MCF7, […] human breast cancer cells, related to ATCC HTB22; NCI-H460, human non-small-cell lung cancer cells, ATCC HTB-177, HCT 116, human colon cancer cells, ATCC CCL-247; DU 145, hormone-independent human prostate cancer cells, ATCC HTB-81; MaTu-MDR, hormone-independent, multiple pharmaceutical agent-resistant human breast cancer cells, EPO-GmbH, Berlin) were flattened out at a density of about 5000 cells/measuring point, depending on the growth rate of the respective cells, in a 96-well multititer plate in 200 μl of the corresponding growth medium. After 24 hours, the cells of one plate (zero-point plate) were colored with crystal violet (see below), while the medium of the other plates was replaced by fresh culture medium (200 μl), to which the test substances were added in various concentrations (0 μm, as well as in the range of 0.01-30 μm; the final concentration of the solvent dimethyl sulfoxide was 0.5%). The cells were incubated for 4 days in the presence of test substances. The cell proliferation was determined by coloring the cells with crystal violet: the cells were fixed by adding 20 μl/measuring point of an 11% glutaric aldehyde solution for 15 minutes at room temperature. After three washing cycles of the fixed cells with water, the plates were dried at room temperature. The cells were colored by adding 100 μl/measuring point of a 0.1% crystal violet solution (the pH was set at 3 by adding acetic acid). After three washing cycles of the colored cells with water, the plates were dried at room temperature. The dye was dissolved by adding 100 μl/measuring point of a 10% acetic acid solution. The extinction was determined by photometry at a wavelength of 595 nm The change of cell growth, in percent, was calculated by normalization of the measured values to the extinction values of the zero-point plate (=0%) and the extinction of the untreated (0 μm) cells (=100%).

MaTu-ADR = assay: Proliferation assay, MaTu-ADR; format: cell-based, human; details: Homo sapiens, 96 h, MaTu-ADR cells, 4 days, crystal violet
From the text: as §1

DU145 = assay: Proliferation assay, DU145; format: cell-based, human; details: Homo sapiens, DU-145, 96 h, DU145 cells, 4 days, crystal violet
From the text: as §1

CDK1/CycB = CDK1/CycB (Homo sapiens (Human), UniProt P06493); assay: CDK1/CycB kinase assay; format: biochemical; details: histone IIIS substrate, 0.5 μm ATP
Sequence of CDK1/CycB (P06493 whole entry, the tested form may be a part): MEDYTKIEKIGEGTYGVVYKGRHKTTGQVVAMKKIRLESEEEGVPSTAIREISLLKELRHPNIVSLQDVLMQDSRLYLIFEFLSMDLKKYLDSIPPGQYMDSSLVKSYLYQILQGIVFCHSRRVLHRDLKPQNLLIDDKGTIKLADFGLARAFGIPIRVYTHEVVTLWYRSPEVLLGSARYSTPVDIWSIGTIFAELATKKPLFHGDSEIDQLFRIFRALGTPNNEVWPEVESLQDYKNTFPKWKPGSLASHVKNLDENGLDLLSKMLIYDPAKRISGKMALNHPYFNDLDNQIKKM
Sequence of CDK1/CycB (P14635 whole entry partner, the tested form may be a part): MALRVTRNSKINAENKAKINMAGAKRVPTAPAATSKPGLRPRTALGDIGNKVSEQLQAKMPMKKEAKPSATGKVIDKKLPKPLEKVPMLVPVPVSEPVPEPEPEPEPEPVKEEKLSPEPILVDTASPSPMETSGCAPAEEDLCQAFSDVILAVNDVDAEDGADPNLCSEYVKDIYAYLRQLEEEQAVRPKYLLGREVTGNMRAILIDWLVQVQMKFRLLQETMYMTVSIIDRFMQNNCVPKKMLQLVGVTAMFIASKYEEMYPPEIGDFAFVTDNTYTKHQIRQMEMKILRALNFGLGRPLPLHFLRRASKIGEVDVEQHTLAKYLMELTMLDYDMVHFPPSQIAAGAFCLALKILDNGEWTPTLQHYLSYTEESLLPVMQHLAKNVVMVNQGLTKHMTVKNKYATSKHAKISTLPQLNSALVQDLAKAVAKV
Method: Recombinant CDK1- and CycB-GST-fusion proteins, purified from baculovirus-infected insect cells (Sf9), were purchased from ProQinase GmbH, Freiburg. Histone IIIS, used as a kinase substrate, is available commercially from the Sigma Company.
The reaction was stopped by adding EDTA solution (250 mmol, pH 8.0, 14 μl/measuring point).
(§2) From each reaction batch, 10 μl was applied to P30 filter strips (Wallac Company), and non-incorporated 33P-ATP was removed by subjecting the filter strips to three washing cycles for 10 minutes each in 0.5% phosphoric acid. After the filter strips were dried for one hour at 70° C., the filter strips were covered with scintillator strips (MeltiLex™ A, Wallac Company) and baked for one hour at 90° C. The amount of incorporated 33P (substrate phosphorylation) was determined by scintillation measurement in a gamma-radiation measuring device (Wallac).

VEGF-R2 = VEGF-R2 (Homo sapiens (Human), UniProt P35968); assay: VEGF receptor-2 kinase assay; format: biochemical; details: poly-(Glu4Tyr) substrate, 8 μmol ATP
Sequence of VEGF-R2 (P35968 20-1356, species assumed): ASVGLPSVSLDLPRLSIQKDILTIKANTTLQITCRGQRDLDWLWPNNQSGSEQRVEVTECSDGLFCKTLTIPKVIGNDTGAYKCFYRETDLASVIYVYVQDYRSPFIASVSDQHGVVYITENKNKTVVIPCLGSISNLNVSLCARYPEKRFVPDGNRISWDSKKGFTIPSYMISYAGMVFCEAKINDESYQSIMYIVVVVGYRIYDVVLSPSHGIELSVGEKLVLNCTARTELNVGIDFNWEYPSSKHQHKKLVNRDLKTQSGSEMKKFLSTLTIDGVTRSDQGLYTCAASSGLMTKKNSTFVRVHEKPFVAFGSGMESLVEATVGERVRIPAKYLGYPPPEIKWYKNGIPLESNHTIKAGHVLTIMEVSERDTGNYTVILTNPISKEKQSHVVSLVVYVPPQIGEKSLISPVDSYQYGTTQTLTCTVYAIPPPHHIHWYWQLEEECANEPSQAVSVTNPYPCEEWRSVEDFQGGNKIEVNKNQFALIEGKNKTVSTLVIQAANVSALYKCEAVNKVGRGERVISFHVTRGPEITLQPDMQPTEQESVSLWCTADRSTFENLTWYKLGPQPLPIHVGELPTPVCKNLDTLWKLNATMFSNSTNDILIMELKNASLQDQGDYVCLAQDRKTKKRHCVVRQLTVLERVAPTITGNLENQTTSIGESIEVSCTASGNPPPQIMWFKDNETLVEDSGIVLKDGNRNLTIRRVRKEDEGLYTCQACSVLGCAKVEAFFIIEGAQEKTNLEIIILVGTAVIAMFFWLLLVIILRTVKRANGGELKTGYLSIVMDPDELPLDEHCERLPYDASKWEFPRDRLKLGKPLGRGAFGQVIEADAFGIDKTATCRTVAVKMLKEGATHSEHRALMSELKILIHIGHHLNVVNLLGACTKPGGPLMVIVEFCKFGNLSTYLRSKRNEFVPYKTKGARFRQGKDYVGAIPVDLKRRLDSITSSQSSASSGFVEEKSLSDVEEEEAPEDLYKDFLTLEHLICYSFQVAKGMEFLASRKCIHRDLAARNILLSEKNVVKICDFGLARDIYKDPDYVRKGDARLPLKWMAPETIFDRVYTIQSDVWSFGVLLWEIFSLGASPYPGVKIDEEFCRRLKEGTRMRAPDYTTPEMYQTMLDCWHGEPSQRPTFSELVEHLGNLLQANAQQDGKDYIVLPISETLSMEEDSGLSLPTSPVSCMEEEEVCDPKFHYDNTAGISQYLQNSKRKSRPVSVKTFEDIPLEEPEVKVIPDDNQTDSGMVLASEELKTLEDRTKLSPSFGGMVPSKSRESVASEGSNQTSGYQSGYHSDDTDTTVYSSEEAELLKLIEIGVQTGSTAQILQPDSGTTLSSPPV
Method: Recombinant VEGF receptor tyrosine kinase-2 was purified as a GST fusion protein from baculovirus-infected insect cells (Sf9). Poly-(Glu4Tyr), which was used as a kinase substrate, was purchased by the Sigma Company.
VEGF receptor tyrosine kinase (90 ng/measuring point) was incubated for 10 minutes at 22° C. in the presence of various concentrations of test substances (0 μm, as well as within the range of 0.001-30 μm) in 30 μl of assay buffer [40 mmol of Tris/HCl, […], 10 mmol of MgCl2, 1 mmol of MnCl2, 3 μmol of Na ortho-vanadate, 1.0 mmol of dithiothreitol, 8 μmol of adenosine trisphosphate (ATP), 27 μg/measuring point of poly-(Glu4Tyr), 0.2 μCi/measuring point of 33P-gamma ATP, 1% dimethyl sulfoxide]. The reaction was stopped by adding EDTA solution (250 mmol, pH 7.0, 10 μl/measuring point).
as §2

H460 = assay: Proliferation assay, H460; format: cell-based, human; details: Homo sapiens, NCI-H460, 96 h, H460 cells, 4 days, crystal violet
From the text: as §1

IC50 (MCF7): 180 nM | IC50 (DU145): 300 nM | IC50 (CDK1/CycB): 25 nM | IC50 (VEGF-R2): 59 nM | IC50 (H460): 200 nM
Compound: C[C@@H](Nc1nc(Nc2ccc(S(=N)(=O)CCO)cc2)ncc1Br)C(C)(C)O (single isomer, unassigned) [Example 1.15]
IC50 (MaTu-ADR): 300 nM
